Results taken from US10471028B2, “Small molecule efflux pump inhibitors” (UNIVERSITY OF ROCHESTER, priority 2014, dated 2019).
Where two headings read alike, the source gives them in different places.

How the values were obtained:
human HepG2 cells = assay: MTT cell viability (cytotoxicity) assay
Protocol: To distinguish putatively non-toxic from human cytotoxic compounds, conventional 3-(4,5-dimethylthiazol-2yl)-2,5-diphenyltetrazolium bromide (MTT) cell viability assays (American Type Culture Collection, Manassas, Va.) were performed for each compound of interest at 1× and 4× their MEC. Briefly, human HepG2 cells were grown to approximately 1×10^6 cells per well in Dulbecco's Modified Eagle Media supplemented with 10% fetal bovine serum (Invitrogen, Carlsbad, Calif.) then treated with 1× or 4× the MEC of the indicated […] Cell viability was measured following the addition of the tetrazolium salt (MTT) as per the manufacturer's recommendations; cells challenged with 50 ug ml^−1 Mitomycin C (Sigma Aldrich) and mock-treated cells served as positive and negative controls, respectively.

[1] = system: A. baumannii strain 98-37-09; assay: Cellular accumulation of minocycline (HPLC, triple-quadrupole MS); type: cell-based, Acinetobacter baumannii; settings: human serum with 0.5 μg mL^−1 minocycline plus test compound (0.5×MEC, 1×MEC), 48 hours
[2] = system: A. baumannii strain 98-37-09; assay: Potentiation of ciprofloxacin toward serum grown A. baumannii; type: cell-based, Acinetobacter baumannii; settings: for Potentiate Ciprofloxacin A. baumannii (value in parentheses: log reduction of viability): 1×MEC with ciprofloxacin versus ciprofloxacin alone, plating; for Potentiate Ciprofloxacin A. baumannii: 100% human serum, 0.125 μg ml^−1 ciprofloxacin, 1× or 2× MEC, 48 hour, growth inhibition
Text: As a means to further prioritize non-toxic compounds of interest based on their therapeutic promise, it was considered that broad spectrum antimicrobial efflux pump inhibitors may be more clinically valuable than narrow-spectrum agents that only potentiate the activity of a limited number of antibiotics or that display activity toward a single bacterial species. […] To do so, 1×10^5 A. baumannii strain 98-37-09 were inoculated into individual wells of microtiter plates containing 100% human serum supplemented with 0.125 μg ml^−1 ciprofloxacin and 0, 1×, or 2× the compound's MEC, as defined by the lowest concentration needed to potentiated minocycline's antimicrobial effects (above). Plates were incubated for 48 hour at which point each compound's ability to potentiate ciprofloxacin was measured, as growth inhibition.

P. aeruginosa PA01 = assay: Potentiation of ciprofloxacin toward serum grown P. aeruginosa; type: cell-based, Pseudomonas aeruginosa; settings: PA01 in 100% human serum, 1×MEC, ciprofloxacin 0 to 2 μg ml^−1
Protocol: To do so, PA01 was inoculated into individuals wells of a microtiter plate containing 100% human serum supplemented with 1×MEC of test compound and increasing concentrations of ciprofloxacin (0 to 2 μg ml^−1) and cell viability was measured.

[3] = system: A. baumannii strain 98-37-09; assay: MEC determination: potentiation of minocycline toward serum grown A. baumannii; type: cell-based, Acinetobacter baumannii; settings: for Log-reduction Colony Forming Units (ml^−1): 1×MEC of compound plus minocycline in serum, versus minocycline alone, plating; for MEC: lowest concentration inhibiting growth in 100% human serum with 0.5 μg ml^−1 minocycline, 48 hr
[4] = system: A. baumannii strain 98-37-09; assay: Ethidium bromide efflux assay; type: cell-based, Acinetobacter baumannii; settings: for ethidium bromide fluorescent signal in comparison to mock treated cells: 10 μg ml^−1 ethidium bromide, 90 min; for cellular ethidium fluorescence compared with PAβN: time course after treatment
Protocol: To distinguish whether the antimicrobial potentiation of ABEPI1 and ABEPI2 correlates with the inhibition of A. baumannii's efflux properties, conventional ethidium bromide efflux assays were performed in the presence and absence of each compound. The assay is predicated upon the fluorescent properties of ethidium bromide during intercalation into cellular nucleic acids, whereby efflux active cells display limited intracellular ethidium bromide accumulation and, consequently, low fluorescence. Conversely, efflux inhibition leads to increased cellular ethidium bromide levels and correspondingly high fluorescence relative to efflux proficient cells. Bacterial ethidium bromide efflux activity assays were used to measure the efflux inhibitory properties of compounds of interest. For assays, an overnight culture of A. baumannii strain 98-37-09 was diluted (1:100) into 100% human serum or fresh LB and grown to mid-exponential phase. Cell pellets were collected via centrifugation 900×g for 20 minutes, washed 3× with 20 mM sodium phosphate buffer and resuspended to an OD600nm=0.2 in sodium phosphate buffer. Approximately 1×10^6 CFU were loaded into individual wells of 96-well white-bottom plates, mixed with 10 μg ml^−1 ethidium bromide, and ethidium fluorescence (excitation 530nm; emission 600nm) was measured every 5 min for 90 min on a Spectramax5 fluorimeter (Molecular Devices, Sunnyvale, Calif.). To determine if the putative efflux pump inhibitors affected ethidium bromide efflux, cells were treated with the indicated amount of compound of interest or the efflux pump inhibitor, PaβN, two minutes after fluorescence monitoring began.

[5] = system: mammalian calcium channel; assay: Mammalian calcium channel assay (Fluo-4); type: cell-based, human; settings: HEK 293T, carbachol treatment alone
Text: Many laboratory bacterial efflux inhibitor tool compounds cannot be used in the clinical setting because they limit mammalian ion channel activity. […] Thus, we measured the effects of ABEPI1 and ABEPI2 on mammalian calcium channel functions using Fluo-4 Direct Calcium Channel Assay kits (Life Technologies, Carlsbad, Calif.), in which the dye Fluo-4 was used to measure changes in mammalian cytoplasmic Ca^2+ levels in response to the calcium channel stimulator, carbachol, in the absence and presence of test compound. […] Next, 2× Fluo-4 dye supplemented with Probenecid (5 mM) was added to each well and allowed to equilibrate for 1 hr at 37° C. To determine whether ABEPI1 or ABEPI2 affect Ca^2+ channel activity, Fluo-4 fluorescence measures (excitation 495nm; emission 516nm) were then taken every second for 15 sec.

A. baumannii = assay: Antibiotic susceptibility assay in LB medium or 100% human serum; type: cell-based, Acinetobacter baumannii; settings: serum grown, efflux pump inhibitor present
Protocol: The antibiotic susceptibility of A. baumannii and Pseudomonas aeruginosa grown in either LB medium or 100% human serum was measured according to the method described below. Briefly, the indicated bacterial species/strain was grown overnight in LB medium, diluted into fresh medium (1:100 dilution) and grown to mid-exponential phase (OD600nm=0.4 to 0.5) at 37° C. with aeration. […] To quantify the antimicrobial effects of each antibiotic toward bacteria grown in LB or serum, well constitutes were serially diluted in PBS and plated on LB agar to enumerate the CFU mL^−1.

Molecule	% Viability (human HepG2 cells) [%]	Minocylcine Per Cell (femtomoles cell^−1) [1] [femtomoles cell^−1]	Potentiate Ciprofloxacin A. baumannii (value in parentheses: log reduction of viability) [2]	Potentiate Ciprofloxacin A. baumannii [2]	Potentiate Ciprofloxacin P. aeruginosa (P. aeruginosa PA01)	Log-reduction Colony Forming Units (ml^−1) [3] [log]	MEC [3] [µg/mL]	% Viability (human HepG2 cells; human, 48 h, 4 ×MEC) [%]	ethidium bromide fluorescent signal in comparison to mock treated cells [4]	cellular ethidium fluorescence compared with PAβN [4]	Potentiate Ciprofloxacin P. aeruginosa (P. aeruginosa PA01; listed as ABEPI1)	increase in cytoplasmic Ca^2+ levels [5]	restoration of tetracycline susceptibility in serum (A. baumannii)
COC(=O)c1ccccc1NC(=O)CN1C(=O)c2ccccc2S1(=O)=O [ST058165]	76.9	1.11E−04	(1.53) log	Yes	No	6.27	32						
CC(C)(C)NC(=O)CSc1nnnn1C(C)(C)C [ST060273]		6.84E−06	(4.36) log	Yes	Yes	6.53	32	90.1	significantly increased signal	essentially identical to those of PAβN until approximately 35 min post-treatment			
NS(=O)(=O)c1ccc(/N=C/c2ccc(Cl)cc2)cc1 [ST009675]		5.88E−04	(2.28) log	Yes	Yes	6.73	2	96.6	significantly increased signal	levels exceeding that of PABN within the first 20 min of treatment	potentiated the activity of ciprofloxacin		
C[N+](C)(C)CCOC(N)=O [Carbachol, carbamylocholine chloride]												approximately 2.3 fold	
phenylalanine arginine beta naphthylamide [PAβN, reference compound]									significantly increased cellular ethidium bromide accumulation				partially restored
